Assay results as given in patent US20120029187A1, “HALOALKYLSULFONANILIDE DERIVATIVE” (Nissan Chemical Industries, Ltd., priority 2009, published 2012).

What was measured:
Assay type in all cases: in vivo
transplanted rice = experiment: Test Example 1: preemergence treatment under submerged conditions, effect on crop; details: dose 2.52 g/a
Outline: (§1)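 Alluvial soil flooded to 4 cm depth; barnyardgrass, bulrush and ducksalad sown and 2.5-leaf rice seedlings transplanted. Same day, water-diluted emulsifiable concentrates applied to the water surface at set doses (g/a). Kept at 25–30 °C in greenhouse; effects scored 0–5 by mortality after three weeks.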

velvetleaf [1] = experiment: Test Example 3: herbicidal effects in soil treatment; details: dose 3.2 g/a
Outline: (§2)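 Seeds were sown in sterilized diluvial soil and covered with about 1.5 cm of soil. Compounds, formulated as emulsifiable concentrates and diluted with water, were sprayed evenly over the soil surface at set doses in g/a. Herbicidal effect was scored on a rating scale three weeks later.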

large crabgrass [2] = experiment: as above
Outline: as §2

wild oat [3] = experiment: as above
Outline: as §2

beadstraw [4] = experiment: as above
Outline: as §2

common chickweed [5] = experiment: as above
Outline: as §2

common ragweed [6] = experiment: as above; details: dose 3.2 g/a
Outline: as §2

water foxtail [7] = experiment: as above
Outline: as §2

giant foxtail [8] = experiment: as above
Outline: as §2

Italian ryegrass [9] = experiment: as above
Outline: as §2

barnyardgrass [10] = experiment: as above
Outline: as §2

common lambsquater [11] = experiment: as above
Outline: as §2

redroot pigweed [12] = experiment: as above
Outline: as §2

bulrush [13] = experiment: Test Example 1: herbicidal effects in preemergence treatment under submerged conditions; details: dose 2.52 g/a
Outline: as §1

barnyardgrass [14] = experiment: as above; details: dose 2.52 g/a
Outline: as §1

ducksalad [15] = experiment: as above; details: dose 2.52 g/a
Outline: as §1

velvetleaf [16] = experiment: Test Example 4: herbicidal effect in foliage treatment; details: dose 3.2 g/a, three weeks after application
Outline: (§3)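 Sowing in sterilized diluvial soil, ~1.5 cm cover; growth 14 d, 25–30° C greenhouse; foliar spray of water-diluted EC at predetermined g/a; scoring 3 wk later on graded scale.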

large crabgrass [17] = experiment: as above; details: three weeks after application
Outline: as §3

posumbu knotweed = experiment: as above; details: dose 3.2 g/a, three weeks after application
Outline: as §3

wild oat [18] = experiment: as above; details: three weeks after application
Outline: as §3

beadstraw [19] = experiment: as above; details: three weeks after application
Outline: as §3

common chickweed [20] = experiment: as above; details: three weeks after application
Outline: as §3

common ragweed [21] = experiment: as above; details: three weeks after application
Outline: as §3

water foxtail [22] = experiment: as above; details: three weeks after application
Outline: as §3

giant foxtail [23] = experiment: as above; details: three weeks after application
Outline: as §3

Italian ryegrass [24] = experiment: as above; details: three weeks after application
Outline: as §3

barnyardgrass [25] = experiment: as above; details: three weeks after application
Outline: as §3

common lambsquater [26] = experiment: as above; details: three weeks after application
Outline: as §3

redroot pigweed [27] = experiment: as above; details: dose 3.2 g/a, three weeks after application
Outline: as §3

bulrush [28] = experiment: Test Example 2: herbicidal effects during the vegetation period under submerged conditions; details: treatment during the vegetation period under submerged conditions; dose 2.52 g/a
Outline: (§4)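 Barnyardgrass, bulrush and ducksalad were co-sown in alluvial soil flooded to 4 cm and grown in a greenhouse at 25 to 30° C. At the 1- or 2-leaf stage, water-diluted emulsifiable concentrates went onto the water surface at set doses (g/a). Herbicidal effect was scored three weeks later on a graded scale.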

barnyardgrass [29] = experiment: as above; details: treatment during the vegetation period under submerged conditions; dose 2.52 g/a
Outline: as §4

ducksalad [30] = experiment: as above; details: treatment during the vegetation period under submerged conditions; dose 2.52 g/a
Outline: as §4

**Q.** What does the source list for `CCOC(=O)N(c1ccccc1CN1CC(C)(C)OCC1=O)S(=O)(=O)C(F)(F)F` [Compound I-16]?
**A.** a: transplanted rice, effect on crop (evaluation scale 0-5) (transplanted rice): 2 (mortality of at least 20% and less than 40%); I: velvetleaf, herbicidal effect (evaluation scale 0-5) (velvetleaf [1]): 5 (mortality of 90% or above (nearly complete death)); D: large crabgrass, herbicidal effect (evaluation scale 0-5) (large crabgrass [2]; dose 3.2 g/a): 5 (mortality of 90% or above (nearly complete death)); F: wild oat, herbicidal effect (evaluation scale 0-5) (wild oat [3]; dose 3.2 g/a): 3 (mortality of at least 40% and less than 70%); O: beadstraw, herbicidal effect (evaluation scale 0-5) (beadstraw [4]; dose 3.2 g/a): 0 (mortality of less than 5% (almost ineffective)); N: common chickweed, herbicidal effect (evaluation scale 0-5) (common chickweed [5]; dose 3.2 g/a): 5 (mortality of 90% or above (nearly complete death)); J: common ragweed, herbicidal effect (evaluation scale 0-5) (common ragweed [6]): 5 (mortality of 90% or above (nearly complete death)); G: water foxtail, herbicidal effect (evaluation scale 0-5) (water foxtail [7]; dose 3.2 g/a): 5 (mortality of 90% or above (nearly complete death)); E: giant foxtail, herbicidal effect (evaluation scale 0-5) (giant foxtail [8]; dose 3.2 g/a): 5 (mortality of 90% or above (nearly complete death)); H: Italian ryegrass, herbicidal effect (evaluation scale 0-5) (Italian ryegrass [9]; dose 3.2 g/a): 4 (mortality of at least 70% and less than 90%); A: barnyardgrass, herbicidal effect (evaluation scale 0-5) (barnyardgrass [10]; dose 3.2 g/a): 5 (mortality of 90% or above (nearly complete death)); L: common lambsquater, herbicidal effect (evaluation scale 0-5) (common lambsquater [11]; dose 3.2 g/a): 3 (mortality of at least 40% and less than 70%); K: redroot pigweed, herbicidal effect (evaluation scale 0-5) (redroot pigweed [12]; dose 3.2 g/a): 5 (mortality of 90% or above (nearly complete death)); B: bulrush, herbicidal effect (evaluation scale 0-5) (bulrush [13]): 5 (mortality of 90% or above (nearly complete death)); A: barnyardgrass, herbicidal effect (evaluation scale 0-5) (barnyardgrass [14]): 5 (mortality of 90% or above (nearly complete death)); C: ducksalad, herbicidal effect (evaluation scale 0-5) (ducksalad [15]): 5 (mortality of 90% or above (nearly complete death)); I: velvetleaf, herbicidal effect (velvetleaf [16]): 5 (mortality of 90% or above (nearly complete death)); D: large crabgrass, herbicidal effect (large crabgrass [17]; dose 3.2 g/a): 4 (mortality of at least 70% and less than 90%); M: posumbu knotweed, herbicidal effect (posumbu knotweed): 3 (mortality of at least 40% and less than 70%); F: wild oat, herbicidal effect (wild oat [18]; dose 3.2 g/a): 3 (mortality of at least 40% and less than 70%); O: beadstraw, herbicidal effect (beadstraw [19]; dose 3.2 g/a): 3 (mortality of at least 40% and less than 70%); N: common chickweed, herbicidal effect (common chickweed [20]; dose 3.2 g/a): 5 (mortality of 90% or above (nearly complete death)); J: common ragweed, herbicidal effect (common ragweed [21]; dose 3.2 g/a): 5 (mortality of 90% or above (nearly complete death)); G: water foxtail, herbicidal effect (water foxtail [22]; dose 3.2 g/a): 5 (mortality of 90% or above (nearly complete death)); E: giant foxtail, herbicidal effect (giant foxtail [23]; dose 3.2 g/a): 4 (mortality of at least 70% and less than 90%); H: Italian ryegrass, herbicidal effect (Italian ryegrass [24]; dose 3.2 g/a): 4 (mortality of at least 70% and less than 90%); A: barnyardgrass, herbicidal effect (barnyardgrass [25]; dose 3.2 g/a): 5 (mortality of 90% or above (nearly complete death)); L: common lambsquater, herbicidal effect (common lambsquater [26]; dose 3.2 g/a): 2 (mortality of at least 20% and less than 40%); K: redroot pigweed, herbicidal effect (redroot pigweed [27]): 2 (mortality of at least 20% and less than 40%); B: bulrush, herbicidal effect (evaluation scale 0-5) (bulrush [28]): 5 (mortality of 90% or above (nearly complete death)); A: barnyardgrass, herbicidal effect (evaluation scale 0-5) (barnyardgrass [29]): 5 (mortality of 90% or above (nearly complete death)); C: ducksalad, herbicidal effect (evaluation scale 0-5) (ducksalad [30]): 5 (mortality of 90% or above (nearly complete death))

**Q.** What does the source list for `CCC(=O)N(c1ccccc1CN1COC(C)(C)CC1=O)S(=O)(=O)C(F)(F)F` [II-19, 6,6-dimethyl-3-[2-(N-ethylcarbonyl-N-trifluoromethanesulfonyl)aminobenzyl]-1,3-oxazinan-4-one]?
**A.** a: transplanted rice, effect on crop (evaluation scale 0-5) (transplanted rice): 0 (mortality of less than 5% (almost ineffective)); D: large crabgrass, herbicidal effect (evaluation scale 0-5) (large crabgrass [2]; dose 6.3 g/a): 5 (mortality of 90% or above (nearly complete death)); F: wild oat, herbicidal effect (evaluation scale 0-5) (wild oat [3]; dose 6.3 g/a): 0 (mortality of less than 5% (almost ineffective)); O: beadstraw, herbicidal effect (evaluation scale 0-5) (beadstraw [4]; dose 6.3 g/a): 4 (mortality of at least 70% and less than 90%); N: common chickweed, herbicidal effect (evaluation scale 0-5) (common chickweed [5]; dose 6.3 g/a): 4 (mortality of at least 70% and less than 90%); G: water foxtail, herbicidal effect (evaluation scale 0-5) (water foxtail [7]; dose 6.3 g/a): 5 (mortality of 90% or above (nearly complete death)); E: giant foxtail, herbicidal effect (evaluation scale 0-5) (giant foxtail [8]; dose 6.3 g/a): 2 (mortality of at least 20% and less than 40%); H: Italian ryegrass, herbicidal effect (evaluation scale 0-5) (Italian ryegrass [9]; dose 6.3 g/a): 5 (mortality of 90% or above (nearly complete death)); A: barnyardgrass, herbicidal effect (evaluation scale 0-5) (barnyardgrass [10]; dose 6.3 g/a): 5 (mortality of 90% or above (nearly complete death)); L: common lambsquater, herbicidal effect (evaluation scale 0-5) (common lambsquater [11]; dose 6.3 g/a): 0 (mortality of less than 5% (almost ineffective)); K: redroot pigweed, herbicidal effect (evaluation scale 0-5) (redroot pigweed [12]; dose 6.3 g/a): 2 (mortality of at least 20% and less than 40%); B: bulrush, herbicidal effect (evaluation scale 0-5) (bulrush [13]): 5 (mortality of 90% or above (nearly complete death)); A: barnyardgrass, herbicidal effect (evaluation scale 0-5) (barnyardgrass [14]): 5 (mortality of 90% or above (nearly complete death)); C: ducksalad, herbicidal effect (evaluation scale 0-5) (ducksalad [15]): 5 (mortality of 90% or above (nearly complete death)); D: large crabgrass, herbicidal effect (large crabgrass [17]; dose 6.3 g/a): 4 (mortality of at least 70% and less than 90%); F: wild oat, herbicidal effect (wild oat [18]; dose 6.3 g/a): 0 (mortality of less than 5% (almost ineffective)); O: beadstraw, herbicidal effect (beadstraw [19]; dose 6.3 g/a): 5 (mortality of 90% or above (nearly complete death)); N: common chickweed, herbicidal effect (common chickweed [20]; dose 6.3 g/a): 4 (mortality of at least 70% and less than 90%); J: common ragweed, herbicidal effect (common ragweed [21]; dose 6.3 g/a): 5 (mortality of 90% or above (nearly complete death)); G: water foxtail, herbicidal effect (water foxtail [22]; dose 6.3 g/a): 5 (mortality of 90% or above (nearly complete death)); E: giant foxtail, herbicidal effect (giant foxtail [23]; dose 6.3 g/a): 4 (mortality of at least 70% and less than 90%); H: Italian ryegrass, herbicidal effect (Italian ryegrass [24]; dose 6.3 g/a): 4 (mortality of at least 70% and less than 90%); A: barnyardgrass, herbicidal effect (barnyardgrass [25]; dose 6.3 g/a): 5 (mortality of 90% or above (nearly complete death)); L: common lambsquater, herbicidal effect (common lambsquater [26]; dose 6.3 g/a): 0 (mortality of less than 5% (almost ineffective)); B: bulrush, herbicidal effect (evaluation scale 0-5) (bulrush [28]): 5 (mortality of 90% or above (nearly complete death)); A: barnyardgrass, herbicidal effect (evaluation scale 0-5) (barnyardgrass [29]): 5 (mortality of 90% or above (nearly complete death)); C: ducksalad, herbicidal effect (evaluation scale 0-5) (ducksalad [30]): 5 (mortality of 90% or above (nearly complete death))
